We go through one compound from patent US20090233948A1, “Inhibitors of nucleoside phosphorylases and nucleosidases” (priority 2005, published 2009).

What is called Ki is the dissociation constant of the complex between target and ligand, obtained from inhibition or displacement.

The target in the assay is T1, human PNP (Homo sapiens, UniProt P00491).
T1 sequence (P00491 1-289): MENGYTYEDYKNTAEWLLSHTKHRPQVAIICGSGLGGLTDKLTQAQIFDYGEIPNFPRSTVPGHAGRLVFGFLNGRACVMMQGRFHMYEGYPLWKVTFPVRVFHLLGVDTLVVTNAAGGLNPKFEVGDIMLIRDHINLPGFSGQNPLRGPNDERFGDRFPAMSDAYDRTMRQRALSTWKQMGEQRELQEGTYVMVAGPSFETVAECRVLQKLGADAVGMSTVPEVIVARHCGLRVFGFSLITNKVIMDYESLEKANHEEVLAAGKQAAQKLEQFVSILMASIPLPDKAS
Put plainly: Inhibition of human PNP: phosphorolysis of inosine, xanthine oxidase coupled spectrophotometric assay (slow-onset tight-binding analysis). The format is biochemical. Conditions: huPNP 1.4 nM, 1 mM inosine, 50 mM KHPO4 pH 7.4, 25° C. The method, then:
Initial (Ki) and equilibrium (Ki*) dissociation constants of DAD-Et-Immucillin-H were determined for human PNP.
Inhibitor dissociation constants for the phosphorolysis of inosine were based on initial and equilibrium reaction rate measurements with varied inhibitor concentrations (Miles, R. W., Tyler, P. C., Furneaux, R. H., Bagdassarian, C. K. and Schramm, V. L. (1998) One-third-the-sites transition state inhibitors for purine nucleoside phosphorylase, Biochemistry 37, 8615-8621; Morrison, J. F. and Walsh, C. T. (1988) The behaviour and significance of slow-binding enzyme inhibitors, Adv. Enzymol. Relat. Areas Mol. Biol. 61, 201-301). […] Hypoxanthine formed by phosphorolysis of inosine was oxidized to uric acid and monitored spectrophotometrically at 293 nm (extinction coefficient for uric acid ε293=12.9 mM^−1cm^−1). Enzyme concentration was adjusted to give absorbance changes not exceeding 1.0 during the time required to characterize initial and final slow-onset inhibition equilibria. […] Ki was determined by fitting the initial rates at different inhibitor concentration to the equation for competitive inhibition: νi=(kcat×S)/(Km(1+I/Ki)+S), where μi is initial reaction rate, kcat is the catalytic turnover number, Km is the Michaelis constant, Ki is the dissociation constant of enzyme-inhibitor complex (EI), I is inhibitor concentration and S is substrate concentration. […]

Each structure is given as a SMILES string. Read-outs that look alike come from different tables or passages of the source.

For the compound `O=c1[nH]cnc2c(CCN3C[C@@H](CO)[C@H](O)C3)c[nH]c12` [Compound 1, (3S,4S)-1-[2-(9-Deaza-hypoxanthin-9-yl)ethyl]-3-hydroxy-4-hydroxymethylpyrrolidine], the Ki runs as follows: (after slow onset equilibrium, read-out: Equilibrium dissociation constant (Ki*)) 0.46 ± 0.05 nM; (initial inhibitor binding step, read-out: Initial dissociation constant (Ki)) 1.6 ± 0.3 nM.
